In brackets after ≈: the same amount, converted by molar mass. Structures can show the parent of a compound that is named as a salt.
Key:
[1] = test system: isolated auricles of guinea pigs; assay: Reduction of the maximum driving frequency (MDF) of isolated auricles of guinea pigs; format: cell-based, guinea pig; details: Cavia porcellus; isolated left auricles; tyrode solution, 37° C., pH 7.4; cumulative addition; MDF 5 and 10 minutes after adding; read-out: EC50: concentration causing a 50% decrease of the maximum driving frequency (MDF)
Procedure: 1. reduction of the maximum driving frequency of isolated auricles of guinea pigs The tests were carried out using an adaption of the method of DAWES (Brit. J. Pharmacol.1, 90, 1946). Guinea pigs of both sexes, body weight between 300 and 400 gm were killed by a blow on the neck. The left auricles were quickly removed and put into an organ bath of 100 ml. The organ bath was filled with tyrode solution, which was infused with a mixture of 98% of oxygen and 2% of carbon dioxide. […] The auricles were stimulated with square wave impulses of 1 millisecond duration at a voltage 200% higher than the threshold voltage and a frequency of 1 Hz (Hugo Sachs, Stimulator II). A weight of 0.4 gm was applied to the auricles and the contractions were continuously measured isometrically by means of a force displacement transducer (Grass Ft 03) and recorded on a Grass polygraph (model 5). After sufficient equilibration time (15 min.) the stimulation rate was increased every 10 seconds by 1 Hz until the maximum driving frequency (MDF) was reached. The MDF is defined as the stimulation frequency, where every stimulation is still answered by a contraction. The MDF was determined before and 5 and 10 minutes after adding the test compound. The test compound was added cumulatively to the organ bath. The concentration causing a 50% decrease of the MDF (EC50) was calculated from a dose-response curve.

[2] = test system: adrenalin-induced ventricular arrhythmia in dogs; assay: Prevention of ventricular arrhythmia provoked by adrenalin in dogs under halothane anesthesia; format: in vivo, dog; details: Canis lupus familiaris, iv, 5 min, i.v., 4 dogs, adrenalin 5 minutes after compound, read-out: mean dose that abolished the adrenalin arrhythmias
Procedure: (§1) 2. prevention of ventricular arrhythmia provoked by adrenalin in dogs under halothane anesthesia
(§2) According to the method described by ALLEN, et al in Brit. J. Pharmacol. 45, 561 (1972), dogs were anesthetized by subcutaneous injection of 0.5 mgm/kg morphine sulfate and by intravenous injection of 20 mg/kg pentobarbitone. The animals were given artificial respiration with room air from a Starling pump via a cuffed endotracheal tube. The electrocardiogram (lead II) was recorded on a Devices recorder (Type M 8 or M 4). The test compound was injected through a polyethylene catheter inserted into a foreleg vein.
(§3) Observations were made on 4 dogs. The artificial respiration was continued adding 1% halothane to the room air. 15 minutes later adrenalin was injected at doses of 0.2 and increased to 0.4, 0.8, 1.2, 1.6, 2.0, 2.4 and 2.8 […], at intervals of 7 to 10 minutes between each dose, until ventricular tachycardia had been produced. After the arrhythmia-producing dose of adrenalin had been established, compound A was injected intravenously. 5 minutes later the adrenalin injection was repeated, using the same dose. The dose of the test compound was increased to obtain the minimum dose which prevented the adrenalin-induced arrhythmia.

[3] = test system: ouabain-induced ventricular arrhythmia in dogs; assay: Suppression of ouabain-induced ventricular arrhythmia in dogs; format: in vivo, dog; details: 12 dogs
Procedure: (§4) 3. Suppression of ouabain-induced ventricular arrhythmia in dogs
(§5) According to the method described by ALLEN, et al. (supra), dogs were anesthetized by subcutaneous injection of morphine sulfate (0.5 mgm/kg), followed by intravenous injection of pentobarbitone (20 mgm/kg). The animals were given artificial respiration with room air from a Starling pump via a cuffed endotracheal tube. The electrocardiogram (lead II) was recorded on a Devices recorder (Type M8 or M 4). Test compound administration was through a polyethylene catheter inserted in a foreleg vein.
(§6) Observations were made on 12 dogs. Ventricular tachycardia was produced by intravenous injection of ouabain, first 40 mgm/kg, followed after 30 minutes by 20 mgm/kg and by 10 mgm/kg every 15 minutes until ventricular tachycardia was established. 10 minutes after the last ouabain injection, the test compound was continuously infused intravenously from a motor-driven syringe at a rate of 0.2 mgm/kg per minute, until sinus rhythm returned. The mean dose of ouabain to produce ventricular tachycardia was 60 ± 2.8 mg/kg. The mean dose of compound A required to convert the ventricular tachycardia to sinus rhythm was 0.76 ± 0.18 mg/kg i.v.

[4] = Acute i.v. toxicity in mice; details: mouse, in vivo, iv, tail vein, LITCHFIELD and WILCOXON, read-out: median lethal dose (LD50)
Procedure: 4. Acute i.v. toxicity in mice
Mice of both sexes having a body weight of 20 to 25 gm were used. The test compound was dissolved in distilled water and injected into the mice with a volume of 0.1 ml/10 gm body weight by way of a tail vein. Each dose was injected into 10 mice. The number of dead animals was determined and the median lethal dose (LD50) was calculated using the method of LITCHFIELD and WILCOXON [J. Pharmac. Exp. Ther. 96, 99 (1949)].

in vivo = format: in vivo, dog; details: dog, in vivo, iv
Procedure: as §1, §2, §3, §4, §5, §6
(§7) The lowest therapeutic dose was 0.1 mgm/kg i.v., which is about 100 to 200 times smaller than the mean toxic dose.

anesthetized dogs = assay: animal or person; format: in vivo, dog
Procedure: as §1, §2, §3, §4, §5, §6, §7

Row | SMILES | EC50 [1] | also measured
1 | CN(C)CCOc1ccccc1C=Cc1ccccn1.Cl [A, 2-[o-(β-Dimethylamino-ethoxy)-styryl]-pyridine monohydrochloride] | 3.8 µg/mL | minimal effective dose [2]: 0.18 ± 0.04 mg/kg; minimal effective dose ([3]; Canis lupus familiaris, iv, i.v. infusion 0.2 mgm/kg per minute, ouabain-induced tachycardia, read-out: mean dose required to convert the ventricular tachycardia to sinus rhythm): 0.76 ± 0.18 mg/kg; LD50 [4]: 25 mg/kg; selectivity ratio (in vivo): 100 to 200; minimal effective dose (anesthetized dogs; Canis lupus familiaris, iv, read-out: lowest therapeutic dose): 0.1 mg/kg; antiarrhythmic effectiveness (in words) (anesthetized dogs; anesthetized dogs): very effective antiarrhythmic compound; therapeutic ratio (in words) (anesthetized dogs; dog, in vivo, iv): excellent therapeutic ratio
2 | CC(=Cc1ccccc1OCCN(C)C)c1ccccn1 [D, 1-[o-(β-Dimethylamino-ethoxy)-phenyl]-2-(pyridyl-2)-propene-1 monohydrochloride] | 3.1 µg/mL | –
3 | Cc1cccc(C=Cc2ccccc2OCCN(C)C)n1.Cl [Compound E, 2-[o-(β-Dimethylamino-ethoxy)-styryl]-6-methyl-pyridine hydrochloride] | 6.3 µg/mL | –
4 | CN(C)CCOc1ccccc1C=Cc1ccc2ccccc2n1.Cl [F, 2-[o-(β-Dimethylamino-ethoxy)-styryl]-quinoline hydrochloride] | 10 µg/mL | –
5 | C[C@@H]1O[C@@H](O[C@H]2C[C@@H](O)[C@]3(CO)[C@H]4[C@H](O)C[C@]5(C)[C@@H](C6=CC(=O)OC6)CC[C@]5(O)[C@@H]4CC[C@]3(O)C2)[C@H](O)[C@H](O)[C@H]1O [ouabain, reference compound] | – | mean dose of ouabain to produce ventricular tachycardia ([3]; intravenous): 60 ± 2.8 mg/kg
6 | CN(C)CCOc1ccccc1C=Cc1ccccc1.Cl [I, 2-(2-Dimethylamino-ethoxy)-stilbene hydrochloride] | 10 µg/mL | –
7 | CN(C)CCOc1ccccc1C=Cc1cnccn1 [H, 2-[o-(β-Dimethylamino-ethoxy)-styryl] -pyrazine] | 25 µg/mL (≈ 92.8 µM) | –

Second part, led by results:

Row | EC50 [1] | SMILES | also measured
8 | 8.3 µg/mL | CNCCOc1ccccc1C=Cc1ccccn1 [B, 2-[0-(β-Methylamino-ethoxy)-styryl]-pyridine dihydrochloride] | –
9 | 9 µg/mL | CN(C)CCOc1ccccc1C=Cc1nc2ccccc2n1C.Cl.Cl [G, 2-[o-(β-Dimethylamino-ethoxy)-styryl]-1-methyl-benzimidazole dihydrochloride] | –
10 | 33 µg/mL | C(=Cc1ccccc1OCCN1CCOCC1)c1ccccn1 [C, 2-[0-(β-Morpholino-ethoxy)-styryl]-pyridine dihydrochloride] | –
